According to ChEMBL document CHEMBL3886800, “Disubstituted 3,4-diamino-3-cyclobutene-1,2-dione compounds for use in the treatment of chemokine-mediated diseases” (2016):

Legend:
[1] = target: T1, C-X-C chemokine receptor type 2 (Homo sapiens, UniProt P25025); test: (§1) In Vitro Affinity Assay: ⿿PathHunter HEK293-CXCR2⿝ or ⿿U2OS hCXCR1 β-arrestin⿝ cells (DiscoveRx Corporation) were seeded overnight at 10 000 cells/well (384-well format) in 20 μl of Opti MEM I medium. A preincubation with the antagonist or the vehicle for 30 min at 37° C. and 5% CO2 was followed by 60 minutes of stimulation with CXCL8 at 37° C. and 5% CO2. The cells were then placed at ambient temperature for 30 minutes. The PathHunter detection reagent (DiscoveRx Corporation) was added. After incubation for 60 min at ambient temperature, the […] during the β-arrestin-CXCR2 interaction was measured for 0.3 s in an Envision 2102 Multilabel Reader (PerkinElmer Life and Analytical Sciences).
T1 sequence (P25025 whole entry): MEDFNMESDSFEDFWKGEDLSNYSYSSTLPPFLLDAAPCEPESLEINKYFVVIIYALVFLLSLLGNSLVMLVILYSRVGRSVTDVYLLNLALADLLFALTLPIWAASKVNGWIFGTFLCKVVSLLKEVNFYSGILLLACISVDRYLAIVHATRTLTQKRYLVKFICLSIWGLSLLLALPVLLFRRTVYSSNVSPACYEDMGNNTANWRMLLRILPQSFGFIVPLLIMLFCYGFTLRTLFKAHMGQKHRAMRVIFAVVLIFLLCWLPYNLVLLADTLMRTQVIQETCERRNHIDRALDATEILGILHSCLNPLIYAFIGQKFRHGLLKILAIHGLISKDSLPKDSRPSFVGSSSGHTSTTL

[2] = target: T2, C-X-C chemokine receptor type 1 (Homo sapiens, UniProt P25024); test: as §1
T2 sequence (P25024 whole entry): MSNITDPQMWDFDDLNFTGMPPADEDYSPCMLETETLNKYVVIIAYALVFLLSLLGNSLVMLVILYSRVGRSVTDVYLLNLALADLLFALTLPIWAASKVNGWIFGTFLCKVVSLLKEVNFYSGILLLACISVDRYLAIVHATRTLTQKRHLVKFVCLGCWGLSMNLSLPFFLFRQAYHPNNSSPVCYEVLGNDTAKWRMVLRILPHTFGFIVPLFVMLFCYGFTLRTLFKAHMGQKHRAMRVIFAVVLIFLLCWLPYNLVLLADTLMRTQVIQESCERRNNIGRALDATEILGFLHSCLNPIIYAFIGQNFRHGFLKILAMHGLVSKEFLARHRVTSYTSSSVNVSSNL

IC50 [1]	IC50 [2]	Structure (SMILES)
23 nM	652 nM	Cc1ccc(C(Nc2c(Nc3cccnc3O)c(=O)c2=O)C2CCCS2)o1 (centres undefined)
69 nM	113 nM	Cc1ccc(C(Nc2c(Nc3ccc(Cl)c(C(=O)N(C)C)c3O)c(=O)c2=O)C2CCCS2)o1 (single isomer, unassigned)
